Experimental data taken from patent US20240358692A1, “TREATMENT OF SCLERODERMA” (Aisa Pharma, Inc., priority 2023, published 2024).

What was measured:
participants with SSc-RP = assay: SHAQ - Visual Analog Scale - Finger Ulcers; type: in vivo, human
From the text: The standard, validated, patient reported outcome measures tool for SSc patients, the Scleroderma Health Assessment Questionnaire (SHAQ), will be used to assess the participant qualify of life. Details are attached in the Appendix. The participant quality of life will be scored, and a disability index calculated for each questionnaire completed by the patient at Screening and each in-clinic visit. The absolute change in participant quality of life from baseline to the end of each dosing period will be calculated similar to frequency data as before.
The standard, validated, patient reported outcome measures tool for SSc patients, the SHAQ, was collected at the time points specified in the study schedules (FIG. 2 and FIGS. 4A and 4B) to assess the participant's quality of life. The SHAQ included a Raynaud's VAS that will also be reported separately.

[1] = cilnidipine given orally; cited from earlier work
[2] = Pooled Cilnidipine (N = 8), Day 12, PP Population, Part A
[3] = cilnidipine 10 mg (combination: + tadalafil 5 mg)
[4] = cilnidipine 20 mg (combination: + tadalafil 5 mg)

SMILES: COCCOC(=O)C1=C(C)NC(C)=C(C(=O)OC/C=C/c2ccccc2)C1c1cccc([N+](=O)[O-])c1 (stereo not shown) [Cilnidipine]
- SHAQ VAS Finger Ulcers, Percent Change from Baseline, Q3 (participants with SSc-RP; Pooled Cilnidipine 20 mg and Cilnidipine 20 mg + Tadalafil 5 mg, PP, Part A): 50.00
- SHAQ Visual Analogue Scale - Finger Ulcers, Change from Baseline, Mean (SD) (participants with SSc-RP; [2]): −0.643 (1.2246)
- SHAQ Visual Analogue Scale - Finger Ulcers, Change from Baseline, Median (participants with SSc-RP; [2]): 0.000
- SHAQ Visual Analogue Scale - Finger Ulcers, In-Clinic Visit (Day 12), Mean (SD) (participants with SSc-RP; [2]): 0.463 (0.7170)
- SHAQ Visual Analogue Scale - Finger Ulcers, In-Clinic Visit (Day 12), Median (participants with SSc-RP; [2]): 0.000
- SHAQ Visual Analogue Scale - Finger Ulcers, Percent Change from Baseline, Mean (SD) (participants with SSc-RP; [2]): −17.08 (103.378) %
- SHAQ Visual Analogue Scale - Finger Ulcers, Percent Change from Baseline, Median (participants with SSc-RP; [2]): −50.82%
- % improvement in VAS Digital Ulcers (participants with SSc-RP; Pooled Cilnidipine (n = 7), SHAQ, mITT Part A): 19%
- SHAQ VAS Finger Ulcers, Change from Baseline, Max (participants with SSc-RP; Pooled Cilnidipine, PP, Part A): 0.40
- SHAQ VAS Finger Ulcers, Change from Baseline, Min (participants with SSc-RP; Pooled Cilnidipine, PP, Part A): −3.20,
- SHAQ VAS Finger Ulcers, Change from Baseline, Q1 (participants with SSc-RP; Pooled Cilnidipine, PP, Part A): −1.000,
- SHAQ VAS Finger Ulcers, Change from Baseline, Q3 (participants with SSc-RP; Pooled Cilnidipine, PP, Part A): 0.000
- SHAQ VAS Finger Ulcers, Day 12, Max (participants with SSc-RP; Pooled Cilnidipine, PP, Part A): 1.90
- SHAQ VAS Finger Ulcers, Day 12, Min (participants with SSc-RP; Pooled Cilnidipine, PP, Part A): 0.00,
- SHAQ VAS Finger Ulcers, Day 12, Q1 (participants with SSc-RP; Pooled Cilnidipine, PP, Part A): 0.000,
- SHAQ VAS Finger Ulcers, Day 12, Q3 (participants with SSc-RP; Pooled Cilnidipine, PP, Part A): 0.900
- SHAQ VAS Finger Ulcers, Percent Change from Baseline, Max (participants with SSc-RP; Pooled Cilnidipine, PP, Part A): 133.3
- SHAQ VAS Finger Ulcers, Percent Change from Baseline, Min (participants with SSc-RP; Pooled Cilnidipine, PP, Part A): −100.0,
- SHAQ VAS Finger Ulcers, Percent Change from Baseline, Q1 (participants with SSc-RP; Pooled Cilnidipine, PP, Part A): −81.37,
- SHAQ VAS Finger Ulcers, Percent Change from Baseline, Q3 (participants with SSc-RP; Pooled Cilnidipine, PP, Part A): 47.22
- VAS Finger Ulcers Change from Baseline Max (participants with SSc-RP; [3]): 0.00
- VAS Finger Ulcers Change from Baseline Median (participants with SSc-RP; [3]): −0.350
- VAS Finger Ulcers Change from Baseline Min (participants with SSc-RP; [3]): −1.00
- VAS Finger Ulcers Change from Baseline Q1 (participants with SSc-RP; [3]): −0.850
- VAS Finger Ulcers Change from Baseline Q3 (participants with SSc-RP; [3]): 0.000
- VAS Finger Ulcers Day 12 Max (participants with SSc-RP; [3]): 1.10
- VAS Finger Ulcers Day 12 Median (participants with SSc-RP; [3]): 0.000
- VAS Finger Ulcers Day 12 Min (participants with SSc-RP; [3]): 0.00
- VAS Finger Ulcers Day 12 Q1 (participants with SSc-RP; [3]): 0.000
- VAS Finger Ulcers Day 12 Q3 (participants with SSc-RP; [3]): 0.550
- VAS Finger Ulcers Percent Change from Baseline Mean (participants with SSc-RP; [3]): −69.44%
- VAS Finger Ulcers Percent Change from Baseline Median (participants with SSc-RP; [3]): −69.44%
- VAS Finger Ulcers Percent Change from Baseline Min (participants with SSc-RP; [3]): −100.0%
- VAS Finger Ulcers Percent Change from Baseline Q1 (participants with SSc-RP; [3]): −100.00%
- VAS Finger Ulcers Change from Baseline Max (participants with SSc-RP; [4]): 0.40
- VAS Finger Ulcers Change from Baseline Mean (participants with SSc-RP; [4]): −0.933
- VAS Finger Ulcers Change from Baseline Median (participants with SSc-RP; [4]): 0.000
- VAS Finger Ulcers Change from Baseline Min (participants with SSc-RP; [4]): −3.20
- VAS Finger Ulcers Change from Baseline Q1 (participants with SSc-RP; [4]): −3.200
- VAS Finger Ulcers Change from Baseline Q3 (participants with SSc-RP; [4]): 0.400
- VAS Finger Ulcers Day 12 Max (participants with SSc-RP; [4]): 1.90
- VAS Finger Ulcers Day 12 Median (participants with SSc-RP; [4]): 0.700
- VAS Finger Ulcers Day 12 Min (participants with SSc-RP; [4]): 0.00
- VAS Finger Ulcers Day 12 Q1 (participants with SSc-RP; [4]): 0.000
- VAS Finger Ulcers Day 12 Q3 (participants with SSc-RP; [4]): 1.900
- VAS Finger Ulcers Percent Change from Baseline Max (participants with SSc-RP; [4]): 133.3%
- VAS Finger Ulcers Percent Change from Baseline Mean (participants with SSc-RP; [4]): 35.29%
- VAS Finger Ulcers Percent Change from Baseline Median (participants with SSc-RP; [4]): 35.29%
- VAS Finger Ulcers Percent Change from Baseline Min (participants with SSc-RP; [4]): −62.7%
- VAS Finger Ulcers Percent Change from Baseline Q1 (participants with SSc-RP; [4]): −62.75%
- VAS Finger Ulcers Percent Change from Baseline Q3 (participants with SSc-RP; [4]): 133.33%
- protein bound [1]: 98%
